Test [1] deals with Pank1−/− mice. The experiment in a line: In vivo testing: liver Coenzyme A levels in Pank1−/− mice. On the set-up: species or system mouse. As to conditions: liver CoA in treated Pank1−/− mice as percentage of untreated Pank1−/− mice; intraperitoneal 1.2 μmoles/g body weight once daily for 5 days, fasted overnight. The method, then:
Compounds of the invention were tested for efficacy in Pank1^−/− mice (strain 129SvJ×C57BL/6J background), which were compared with age-matched Pank1^+/+ (strain 129SvJ×C57BL/6J) littermates, ages 8-12 weeks. Each mouse was identified with a coded ear tag and weighed on the first day of testing. Each compound was administered to 4-5 mice by intraperitoneal injection at a dose of 1.2 μmoles/g body weight in 5 μL dimethylsulfoxide once daily for 5 days, and mice were then fasted overnight, weighed, and euthanized. Untreated mice received 5 μL dimethylsulfoxide once daily for 5 days and then were fasted overnight prior to weighing and euthanasia. Livers were excised from each mouse, aliquots were snap-frozen in liquid nitrogen, and stored at −80° C. Within 7 days, liver samples were thawed on ice, weighed, and analyzed for Coenzyme A content as described below. Efficacy was indicated by a statistically significant increase in the liver Coenzyme A levels in the Pank1^−/− mice as compared to the liver from untreated Pank1^−/− mice and by equivalence in comparison with Coenzyme A levels in untreated Pank1^+/+ mice.
CoA Measurements: Extraction of Fibroblasts and Liver and Derivatization of Coenzyme A Prior to High Pressure Liquid Chromatography (HPLC) […]
Coenzyme A Quantification by HPLC […]

The test system of test [2] is PANK2 silenced cells (IMR32 Human Neuroblastoma Cells). The experiment in a line: Neuroblastoma cell assay: CoASH by LC-MS/MS in PANK2 silenced cells. In kind it is cell-based. The settings on record: 50 μM, treatment repeated after 24 hours, further 24 hours; free CoASH by LC-MS/MS. As for the experimental part:
The compounds described herein may be tested in PANK2 silenced cells (IMR32 Human Neuroblastoma Cells). The amount of CoASH following administration of the compounds is measured by LC-MS/MS.
Human neuroblastoma IMR32 cells (ATCC) were cultured in MEM (Invitrogen) supplemented with 10% fetal bovine serum, 2 mM glutamine, 1% penicillin-streptomycin, 1 mM sodium pyruvate, 1 mM non essential aminoacids and 1.5 g/l sodium bicarbonate.
Human Emryonic Kidney HEK-293T cells (ATCC) were cultured in DMEM supplemented with 10% fetal bovine serum, 1 mM glutamine, 1% penicillin-streptomycin.
The cells were maintained at 37° C. under 5% CO2.
Establishment of a PANK2−/− Cell Model
For lentiviral shRNA expression, Human Emryonic Kidney HEK-293T cells (ATCC) were transfected with the appropriate pGFP-Lenti-shRNA constructs and packaging plasmids according to manufacturer's protocol (Origene Technologies, Inc.). 4 different gene-specific shRNA expression vectors designed against multiple splice variants of PANK2 (Gene ID 80025) were used for transfection. A non-silencing shRNA construct (scrambled shRNA) and an empty vector expressing GFP alone were used as negative controls. The GFP tag subcloned into the lentiviral vectors was used to monitor the transfection efficiency.
IMR32 cells were plated on […] dishes 48 hrs before transduction with lentiviral particles.
Three days after transduction medium was removed and replaced with fresh medium containing […] puromycin. Medium was replaced every 48 hrs. Levels of PANK2 expression on selected clones was assessed by Western Blot analysis.
Cell-Based Assay on PANK2−/− Cells
Cells were plated on 6-well culture plates. After 72 hours, compounds were diluted in DMSO and added to the culture medium such that the final solvent concentration was 0.1% (v/v). […] Before analysis of Coenzyme A levels, cells were harvested, counted and collected in a 15 ml falcon tube and centrifuged at 200×g for 5 min at 4° C. […]
Results are expressed as fold increase in CoA levels (LCMS quantification of free CoASH as described in above).

As to `COC(=O)[C@H](C)NP(=O)(OCC(C)(C)[C@@H](O)C(=O)NCCC(=O)OCc1ccccc1)Oc1ccccc1` (stereo partly drawn) [Compound 22, Benzyl 3-((2R)-2-hydroxy-4-(((((S)-1-methoxy-1-oxopropan-2-yl)amino)(phenoxy)phosphoryl)oxy)-3,3-dimethylbutanamido)propanoate], the “CoA (% KO)” value in test [1] worked out at 400 % KO. For the same compound, the “CoA levels (fold over vehicle treated PANK2−/− cells)” value in test [2] was determined as 1.1 fold.

As to `COC(=O)CCNC(=O)[C@H](O)C(C)(C)COP(=O)(N[C@@H](Cc1ccccc1)C(=O)OCc1ccccc1)Oc1ccccc1` (stereo partly drawn) [Compound 27, Benzyl (((R)-3-hydroxy-4-((3-methoxy-3-oxopropyl)amino)-2,2-dimethyl-4-oxobutoxy)(phenoxy)phosphoryl)-L-phenylalaninate], the “CoA (% KO)” value in test [1] was determined as 1837 % KO. In addition, the “CoA levels (fold over vehicle treated PANK2−/− cells)” value in test [2] is reported as 1.3 fold.

Consider `COC(=O)CCNC(=O)[C@H](O)C(C)(C)COP(=O)(N[C@@H](C)C(=O)OCc1ccccc1)Oc1ccccc1` (stereo partly drawn) [Compound 24, Benzyl (((R)-3-hydroxy-4-((3-methoxy-3-oxopropyl)amino)-2,2-dimethyl-4-oxobutoxy)(phenoxy)phosphoryl)-L-alaninate], for which the “CoA levels (fold over vehicle treated PANK2−/− cells)” value in test [2] stood at 1.7 fold.

Source of the values: US10407447B2, “Pantothenate derivatives for the treatment of neurological disorders” (Retrophin, Inc., priority 2013, dated 2019).
